Measurements reported in US12325676B2, “Cationic lipid compound and composition for delivery of nucleic acids and use thereof” (Shenzhen Rhegen Biotechnology Co., Ltd., priority 2022, dated 2025).

Legend:
[1] = Encapsulation rate of mRNA-loaded lipid nanoparticles (Ribogreen kit); type: physicochemical
Description: (§1) Luciferase mRNA was diluted in 10-100 mM citrate buffer at pH 4.0; the lipid components (cationic lipids shown in the present disclosure: DSPC:cholesterol:PEG lipids (DMG-PEG2000)) were dissolved in ethanol at a molar ratio of 50:10:38.5:1.5.
(§2) 3 mL of a mRNA buffer and 1 mL of a lipid solution were loaded into two 5 mL syringes respectively, and the syringes were installed on a microfluidic syringe pump. Chips were connected to the syringes and syringe pump flow rate was set. Clicking the start button of the syringe pump caused injection into the chip at a flow rate ratio of 3:1. Under observation of the color of the product at the exit of the chip, after discarding the first 5 milky white droplets (about 100 μL), the back-end sample was collected into an EP tube. The collected product was placed in a dialysis bag and dialyzed for 6 h (MWCO: 100 KDa) in 10 mM PBS (pH 7.4) intervals. Subsequently, after being concentrated by ultrafiltration to the desired concentration, the lipid nanoparticles were filtered through a 0.22 μm sterile filter and then stored at 4° C.
(§3) Tests were performed to calculate the encapsulation rate of the products according to the instructions of Ribogreen kit. Particle size and polydispersity index (PDI) detection as well as zeta potential analysis was performed on a Malvern Zetasizer nano instrument using standard assays.

[2] = Particle size, PDI and zeta potential of mRNA-loaded lipid nanoparticles (Malvern Zetasizer nano); type: physicochemical
Description: as §1, §2, §3

BALB/c mice [3] = experiment: In vivo expression of luciferase mRNA delivered by LNP, tail intravenous injection, small animal imaging; conditions: Table 3, 5 μg mRNA, female BALB/c mice, DLin-MC3-DMA = 100
Description: LUC-mRNA-lipid nanoparticles containing 5 μg mRNA (see SEQ ID NO: 1 in the Patent Application Publication CN114380724A for the corresponding nucleotide sequence of LUC-mRNA) were injected via tail intravenous injection in 6-8 week old female BALB/c mice, prepared as in Example 19. 100 μg of D-Luciferin Potassium Salt was injected via tail intravenous injection into the mice at specific time points and assayed using the PerkinElmer Small Animal Imaging System. Fluc is commonly used in mammalian cell cultures to measure gene expression and cell viability, and it emits biological fluorescent light in the presence of the substrate […]. The basic characteristics of the mRNA used include ARCA cap structure, polyA tail length of 120 nt, and complete substitution of pseudouridine.
The effect of delivering luciferase mRNA using more cationic lipids were validated according to the methods of Example 20 and Example 21.

BALB/c mice [4] = experiment: In vivo expression of luciferase mRNA delivered by LNP, lung nebulization; conditions: LUC-mRNA LNP, 5 μg mRNA, compared with Lipid M and SM-102
Description: LUC-mRNA-lipid nanoparticles containing 5 μg mRNA were administrated via lung nebulization in 6-8 week old BALB/c mice, prepared as in Example 19. 100 μg of D-Luciferin Potassium Salt was injected via tail intravenous injection into the mice at specific time points and assayed using the PerkinElmer Small Animal Imaging System.

BALB/c mice [5] = experiment: In vivo EPO protein expression after tail i.v. injection of EPO-mRNA LNP, serum ELISA; conditions: 6 hours after tail i.v. injection of 20 μg EPO-mRNA-lipid nanoparticles, female Balb/c mice
Description: In the example, the effects of in vivo transfection of erythropoietin (EPO) by various cationic liposomes were compared. Nanoparticles were prepared in the same manner as in Example 20, and the nucleotide sequence corresponding to the EPO mRNA used is given in CN114380724B, SEQ ID NO:2. After preparation, 20 μg of EPO-mRNA-lipid nanoparticles were injected via tail intravenous injection in 6-8 week female Balb/c mice. 6 hours later the mice were subjected to blood sampling from the eye frame. After centrifugation to separate the serum, EPO protein expression was determined using ELISA. The basic characteristics of the mRNA used include ARCA cap structure, polyA tail length of 100-120 nt, and complete substitution of pseudouridine.

[6] = Encapsulation rate of mRNA-loaded lipid nanoparticles (Ribogreen kit); type: physicochemical; conditions: Table 4 batch; EPO mRNA LNP prepared as Example 20
[7] = Particle size, PDI and zeta potential of mRNA-loaded lipid nanoparticles (Malvern Zetasizer nano); type: physicochemical; conditions: Table 4 batch; EPO mRNA LNP prepared as Example 20
SD rats = experiment: Abnormal toxicity of cationic lipid nanoparticles, tail i.v. injection, liver and kidney function; type: in vivo; conditions: EPO mRNA LNP, 5 mg/kg tail intravenous injection, female SD rats
Description: The nanoparticles prepared in Example 27 were used in this experiment. The nanoparticles were injected via tail intravenous injection at a dose of 5 mg/kg in female SD rats weighing 200-250 g. The […] in the control group were injected with a corresponding volume of normal saline. […] Blood samples were collected at 120 h after injection, and alanine transaminase (ALT), aspartate aminotransferase (AST), urea nitrogen (BUN), and serum creatinine (SCR) were measured using a fully automated biochemistry instrument as the evaluation indexes of hepatic and renal functions.

[8] = Table 1, Luciferase mRNA LNP, cationic lipid:DSPC:cholesterol:DMG-PEG2000 50:10:38.5:1.5 molar
[9] = Table 3 batch, luciferase mRNA LNP prepared as Example 20

| Encapsulation rate (%) [1, 9] [%] | SMILES | Encapsulation rate (%) [1, 8] [%] | PDI [2, 8] | Particle size (nm) [2, 8] [nm] | Zeta potential (mV) [2, 8] [mV] | PDI [2, 9] | Particle size (nm) [2, 9] [nm] | relative fluorescence intensity (%) (BALB/c mice [3]) | fluorescent levels of mRNA expression (FIG. 2) (BALB/c mice [4]) | EPO concentration (BALB/c mice [5]) [pg/mL] | Encapsulation rate (%) [6] [%] | PDI [7] | Particle size (nm) [7] [nm] | death after injection (time) (SD rats) [h] |
| --- | --- | --- | --- | --- | --- | --- | --- | --- | --- | --- | --- | --- | --- | --- |
| 96.8 | CCCCCCCCOCC(C)C(=O)OCCCCCN(CCO)CCCCCCCC(=O)OC(CCCCCCCC)CCCCCCCC (stereo not shown) [Compound 7] | 96.1 | 0.17 | 78.9 | −3.77 | 0.15 | 82.9 | 754 ± 32 | superior to Lipid M and SM-102 | 4.21e+07 | 97.8 | 0.09 | 88.8 | – |
| – | CCCCC/C=C\C/C=C\CCCCCCCCC(CCCCCCCC/C=C\C/C=C\CCCCC)OC(=O)CCCN(C)C [DLin-MC3-DMA, reference compound] | 87.6 | 0.19 | 102.3 | −0.03 | 0.16 | 101.5 | 100 | – | 4.37e+06 | 90.1 | 0.19 | 97.6 | ≤ 18 |
